The text below walks through data of PMC9046087, “Structural basis of tethered agonism of the adhesion GPCRs ADGRD1 and ADGRF1” (Nature, 2022).

Read-outs that look alike come from different tables or passages of the source. Ends that are not written are not given here.

What all share (assay): BRET assay using TRUPATH biosensors, Gi activation of ADGRF1
Type in all cases: cell-based
(In general: BRET reads energy transfer from a luciferase to a nearby fluorophore.)

The target in test [1] is T1, ADGRF1 (Homo sapiens, UniProt Q5T601).
T1 construct: Flag (N); expressed in transfected cells; host or cells: HEK293F
T1 sequence (Q5T601 20-910): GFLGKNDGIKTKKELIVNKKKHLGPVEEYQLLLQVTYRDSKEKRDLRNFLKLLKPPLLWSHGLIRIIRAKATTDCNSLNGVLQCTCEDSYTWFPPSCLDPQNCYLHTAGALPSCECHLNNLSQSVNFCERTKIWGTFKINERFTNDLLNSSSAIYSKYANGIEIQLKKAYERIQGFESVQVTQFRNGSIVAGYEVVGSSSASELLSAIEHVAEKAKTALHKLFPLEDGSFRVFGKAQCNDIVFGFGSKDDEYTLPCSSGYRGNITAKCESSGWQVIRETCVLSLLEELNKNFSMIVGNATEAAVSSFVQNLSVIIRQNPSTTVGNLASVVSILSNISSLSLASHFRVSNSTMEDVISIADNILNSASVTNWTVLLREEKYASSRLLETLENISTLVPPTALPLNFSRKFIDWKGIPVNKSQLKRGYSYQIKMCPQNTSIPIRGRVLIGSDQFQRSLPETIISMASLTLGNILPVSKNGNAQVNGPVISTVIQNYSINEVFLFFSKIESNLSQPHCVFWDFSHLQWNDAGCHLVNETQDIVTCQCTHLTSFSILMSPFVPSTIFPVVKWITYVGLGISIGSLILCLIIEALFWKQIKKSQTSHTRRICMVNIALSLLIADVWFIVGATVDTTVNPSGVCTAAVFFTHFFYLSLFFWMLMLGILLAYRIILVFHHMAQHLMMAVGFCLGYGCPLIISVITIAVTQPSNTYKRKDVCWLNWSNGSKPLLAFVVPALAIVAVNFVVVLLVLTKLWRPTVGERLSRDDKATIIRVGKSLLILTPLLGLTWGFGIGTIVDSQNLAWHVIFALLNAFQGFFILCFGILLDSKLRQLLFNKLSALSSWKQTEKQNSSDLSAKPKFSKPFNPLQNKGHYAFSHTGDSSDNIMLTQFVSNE
The protocol: (§1) To study the synthetic stalk peptide-induced G protein activation of ADGRD1 and ADGRF1, a BRET assay using TRUPATH biosensors was conducted to measure the proximal interaction between RLuc8 fused to the Gα subunit and GFP2 fused to the Gγ subunit. The TRUPATH suite of biosensors was obtained from Addgene (Addgene kit no. 1000000163) as a gift from B. Roth, including GαsS-RLuc8, Gαi1-RLuc8, Gβ3 and Gγ9-GFP2 as previously described.
(§2) The wild-type or mutant ADGRD1 and ADGRF1 were transiently co-transfected with plasmids encoding Gα-RLuc8 (GαsS-RLuc8 for Gs activation assay; Gαi1-RLuc8 for Gi activation assay), Gβ3 and Gγ9-GFP2 at a ratio of 2:1:1:1 (receptor plasmid, 800 ng; G protein subunit plasmids, 400 ng for each) in 2 ml HEK293F cells at a density of 1.2 × 10^6 cells per ml. Cell cultivation and receptor surface expression measurement were performed as described above. The cells were plated into 96-well white plates (40,000 cells per well) in 60 μl of assay buffer and incubated at 37 °C for 30 min. Then 10 μl of freshly prepared 50 μM coelenterazine 400a (Nanolight Technologies) was added. […] The cells were stimulated with 30 μl of synthetic stalk peptide at different concentrations and the BRET signals were monitored continuously five times. The last measurements were used in data analysis. The BRET ratios were calculated as the ratio of the GFP2 emission to RLuc8 emission.

Test [2] addresses T2, ADGRF1 (Homo sapiens, UniProt Q5T601, W804A).
T2 construct: Flag (N); expressed in transfected cells; host or cells: HEK293F
The following applies: ADGRF1 W804^6.53bA. The method, then: as §1, §2

Test [3] addresses T3, ADGRF1 (Homo sapiens, UniProt Q5T601, L752A).
T3 construct: Flag (N); expressed in transfected cells; host or cells: HEK293F
The following applies: ADGRF1 L752^5.44bA. The method, then:
as §1, §2

Test [4] has as its target T4, ADGRF1 (Homo sapiens, UniProt Q5T601, M627A).
T4 construct: Flag (N); expressed in transfected cells; host or cells: HEK293F
The following applies: ADGRF1 M627^2.50bA. The protocol: as §1, §2

The target of test [5] is T5, ADGRF1 (Homo sapiens, UniProt Q5T601, V585A).
T5 construct: Flag (N); expressed in transfected cells; host or cells: HEK293F
The following applies: ADGRF1 V585^1.36bA. The method, then: as §1, §2

In test [6] the target is T6, ADGRF1 (Homo sapiens, UniProt Q5T601, L681H).
T6 construct: Flag (N); expressed in transfected cells; host or cells: HEK293F
The following applies: ADGRF1 L681^3.53bH. The method, then: as §1, §2

Where [7] appears, read: n = 4, read-out: pEC50 (mean ± s.e.m.) (converted).
Setting [8] is: n = 3, read-out: pEC50 (mean ± s.e.m.) (converted).

T5 sequence (Q5T601 20-910 V585A): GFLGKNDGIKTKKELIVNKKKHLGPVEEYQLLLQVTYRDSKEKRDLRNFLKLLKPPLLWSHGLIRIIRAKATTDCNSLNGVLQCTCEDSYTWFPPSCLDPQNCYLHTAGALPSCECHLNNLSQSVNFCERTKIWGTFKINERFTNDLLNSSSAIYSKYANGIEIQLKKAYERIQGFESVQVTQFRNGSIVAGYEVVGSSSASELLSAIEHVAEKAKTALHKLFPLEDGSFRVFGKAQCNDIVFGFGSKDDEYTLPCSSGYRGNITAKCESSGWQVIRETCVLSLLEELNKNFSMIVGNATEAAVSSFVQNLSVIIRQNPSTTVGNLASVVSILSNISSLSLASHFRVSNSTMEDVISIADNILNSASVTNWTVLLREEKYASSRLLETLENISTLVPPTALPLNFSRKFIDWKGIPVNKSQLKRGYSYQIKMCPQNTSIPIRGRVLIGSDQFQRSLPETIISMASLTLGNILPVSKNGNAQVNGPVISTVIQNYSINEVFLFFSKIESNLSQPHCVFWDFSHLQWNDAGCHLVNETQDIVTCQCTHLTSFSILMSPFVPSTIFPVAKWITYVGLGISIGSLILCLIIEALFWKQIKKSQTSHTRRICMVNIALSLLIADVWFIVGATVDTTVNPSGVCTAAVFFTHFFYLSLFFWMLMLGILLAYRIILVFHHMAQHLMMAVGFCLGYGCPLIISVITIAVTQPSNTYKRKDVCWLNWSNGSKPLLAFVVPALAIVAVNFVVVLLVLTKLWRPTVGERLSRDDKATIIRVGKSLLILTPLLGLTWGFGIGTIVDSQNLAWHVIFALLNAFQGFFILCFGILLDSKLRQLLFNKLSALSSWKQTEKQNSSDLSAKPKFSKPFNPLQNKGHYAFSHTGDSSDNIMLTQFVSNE
T4 sequence (Q5T601 20-910 M627A): as the sequence (Q5T601 20-910 V585A) above, with A566V, M608A counted along it
T3 sequence (Q5T601 20-910 L752A): as the sequence (Q5T601 20-910 V585A) above, with A566V, L733A counted along it
T2 sequence (Q5T601 20-910 W804A): as the sequence (Q5T601 20-910 V585A) above, with A566V, W785A counted along it
T6 sequence (Q5T601 20-910 L681H): as the sequence (Q5T601 20-910 V585A) above, with A566V, L662H counted along it

Turning to TSFSILMSPFVP [pF1], the “Emax (mean ± s.e.m.)” value on ADGRF1 [1] (ADGRF1 Construct 1 (structure construct), n = 4) is given as 90 ± 13 % of WT; on ADGRF1 [1] (ADGRF1 WT, n = 30), 100 ± 3 % of WT; on ADGRF1 [2] (n = 4), 86 ± 19 % of WT; at ADGRF1 [3] (n = 3), 90 ± 15 % of WT; on ADGRF1 [4] (n = 3), 113 ± 8 % of WT; at ADGRF1 [5] (n = 3), 84 ± 8 % of WT. Moreover, at ADGRF1 [6] (n = 4), the “Emax (mean ± s.e.m.)” value is listed as 103 ± 13 % of WT. In addition, the EC50 was 100 nM at ADGRF1 [1] (ADGRF1 Construct 1 (structure construct), n = 4, read-out: pEC50 (mean ± s.e.m.) (converted)); 61.7 nM on ADGRF1 [1] (ADGRF1 WT, n = 30, read-out: pEC50 (mean ± s.e.m.) (converted)); 977 nM on ADGRF1 [2] (setting [7]); 513 nM at ADGRF1 [3] (setting [8]); 692 nM on ADGRF1 [4] (setting [8]); 437 nM at ADGRF1 [5] (setting [8]). Further, the EC50 on ADGRF1 [6] (setting [7]) was 347 nM.
